Experimental data reported in paper PMC5136619, “Crystal structure of bacterial haem importer complex in the inward-facing conformation” (Nature Communications, 2016).

Molecular target: T1, BhuUV-T (Burkholderia cenocepacia, UniProt B4EKB5)
T1 construct: gene hmuV; His8-BhuU full length with BhuV, plus haem-free BhuT 40-311 (GST cut off by PreScission) in ATPase assay; GFP-tagged BhuT in pull-down; heteropentamer; with Heme ABC transporter permease BhuU
Experiment: His-tag pull-down, release of GFP-BhuT from immobilized BhuUV
Assay type: binding
Conditions: 1 mM AMP–PNP, 1 mM MgCl2, 0.15% DM, pH 7.5, on ice; nucleotide site of BhuV

T1 sequence (B4EKB3 entry or part of it): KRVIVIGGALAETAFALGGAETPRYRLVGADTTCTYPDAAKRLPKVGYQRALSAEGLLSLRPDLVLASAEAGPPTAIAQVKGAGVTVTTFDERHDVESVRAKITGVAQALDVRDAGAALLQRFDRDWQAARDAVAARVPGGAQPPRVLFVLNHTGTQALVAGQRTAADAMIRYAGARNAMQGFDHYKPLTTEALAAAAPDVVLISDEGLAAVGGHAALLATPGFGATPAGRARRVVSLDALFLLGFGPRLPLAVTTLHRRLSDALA
T1 sequence (B4EKB4 entry or part of it, further chain): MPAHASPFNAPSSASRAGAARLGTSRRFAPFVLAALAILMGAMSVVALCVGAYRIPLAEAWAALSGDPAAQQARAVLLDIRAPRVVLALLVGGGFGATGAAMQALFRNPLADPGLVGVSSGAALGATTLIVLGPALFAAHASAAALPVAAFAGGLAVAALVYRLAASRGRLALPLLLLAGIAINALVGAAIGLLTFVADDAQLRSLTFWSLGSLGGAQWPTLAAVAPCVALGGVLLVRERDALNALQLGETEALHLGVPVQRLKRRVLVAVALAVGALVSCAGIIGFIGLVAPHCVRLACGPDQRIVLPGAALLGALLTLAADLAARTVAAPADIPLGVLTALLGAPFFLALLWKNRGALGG
T1 sequence (B4EKB5 entry or part of it): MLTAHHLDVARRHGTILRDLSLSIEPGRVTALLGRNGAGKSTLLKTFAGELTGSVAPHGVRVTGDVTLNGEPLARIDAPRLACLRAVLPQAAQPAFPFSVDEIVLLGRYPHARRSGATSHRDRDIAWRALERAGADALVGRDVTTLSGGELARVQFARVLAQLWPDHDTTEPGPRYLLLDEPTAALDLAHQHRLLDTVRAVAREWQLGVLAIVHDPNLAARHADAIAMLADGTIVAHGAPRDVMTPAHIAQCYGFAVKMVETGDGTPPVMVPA

Nc1ncnc2c1ncn2[C@@H]1O[C@H](COP(=O)(O)OP(=O)(O)NP(=O)(O)O)[C@@H](O)[C@H]1O [AMP–PNP]
His-tag pull-down, release of GFP-BhuT from immobilized BhuUV: both ATP and AMP–PNP caused the dissociation of GFP-BhuT from BhuUV
